Source: US20230144898A1, “INHIBITOR OF ASPARTIC ACID SYNTHESIS IN TUMOR CELLS, INHIBITOR OF SPHEROID FORMATION OF TUMOR CELLS, INHIBITOR OF TUMOR CELL METASTASIS, ACTIVITY ENHANCER OF GLYCOLYTIC INHIBITOR, AND PHARMACEUTICAL COMPOSITION FOR SUPPRESSING AND/OR PREVENTING TUMOR METASTASIS” (CCI HOLDINGS INC., priority 2020, published 2023)
≈ marks a conversion by molar mass, not a printed value. Like-named read-outs stand apart in the source and are kept apart here. Blank lines part the entries; values can stand above or below the compound they belong to.

Experiments:
[1] = tested on: B16F10 cells; assay: Influence on anticancer action of 2-DG, cell viability (Test Example 3); type: cell-based, mouse; conditions: 2-DG 3 mM to 3 nM, negative control section (DMSO), 36 hours
Procedure: Specifically, to start with, B16F10 cells were seeded in a six-well plate in an amount of 0.5×10^5 cells/mL. Next, after 24 hours starting from seeding, 2-DG (concentration changed from 3 mM to 3 nM) was added and simultaneously treated with neopetasin at a concentration of 0.3 µM or 3 µM. Then, after 36 hours starting from this treatment, the cell viability was measured through the same method as in Test Example 1. Moreover, as a negative control section, DMSO was administered to perform the same experiment.

[2] = tested on: CMeCl cells (canine malignant melanoma cells); assay: Proliferation inhibition, CMeC1 cells, trypan blue viable cell count (Test Example 1); type: cell-based; conditions: Cell line: CMeC1, incubated for 72 hours; for IC50: read-out: IC50
Procedure: Four compounds of petasin, S-petasin, neopetasin and neo-S-petasin were evaluated for the inhibitory effect on proliferation of mouse or canine malignant melanoma cells by the following method.
B16F10 cells (mouse malignant melanoma cells) were obtained from JCRB Cell Bank (National Institutes of Biomedical Innovation, Health and Nutrition). In addition, CMeCl cells (canine malignant melanoma cells) were obtained from Veterinary Surgery Laboratory, Graduate School of Agricultural and Life Sciences, the University of Tokyo. Furthermore, A2058 cells (human malignant melanoma cells) were obtained from JCRB Cell Bank (National Institutes of Biomedical Innovation, Health and Nutrition). B16F10 cells were cultured in a 37° C. incubator (air/CO2 = 95/5 (v/v)) using Dulbecco’s modified Eagle’s medium (DMEM), CMeCl cells in RPMI (Roswell Park Memorial Institute) medium (RPMI1640), and A2058 cells in E-MEM medium.
First, CMeCl cells (canine malignant melanoma cells) were seeded in a six-well plate so as to be 0.5×10^5 cells/mL, and after 24 hours therefrom, each of the above four kinds of compounds (final concentration: 0.01 to 100 µg/mL) was suspended in the medium at a ratio of 0.1% and incubated for 72 hours. 72 hours after the start of culture, the number of viable cells was measured by trypan blue staining. At this time, viable cells (cell viability%) were calculated as the relative number of cells when the number of viable cells in a negative control section (DMSO treatment) was taken as 100%. Then, IC50 was calculated using a GraphPad Prism software system (GraphPad Software Inc.).

[3] = tested on: colon cancer cell lines; conditions: cited from earlier work
[4] = tested on: B16F10 cells (mouse malignant melanoma cells); conditions: cited from earlier work
[5] = tested on: mitochondria in B16F10 cells; assay: MitoTracker Orange staining of mitochondria (Test Example 8); type: cell-based, mouse; conditions: neopetasin 3 µM, metformin 5000 µM; 48 hours
Procedure: In order to determine the action mechanism of neopetasin on inhibiting the aspartic acid synthesis in tumor cells, the influence of neopetasin on mitochondria in B16F10 cells was evaluated. Specifically, B16F10 cells treated with neopetasin (3 µM) for 48 hours through the same method as in Test Example 1 were stained using MitoTracker Orange (Thermo Fisher Scientific, MA, USA), which labels mitochondria depending on membrane potential. In addition, as a positive control section, in place of neopetasin, metformin known as a mitochondrial respiratory chain Complex I inhibitor (mitochondrial toxin) was used at a concentration of 5000 µM to perform the same experiment. Subsequently, the cells stained as described above were photographed with a fluorescence microscope (FIG. 9A). In addition, the relationship between fluorescence intensity of the cells and the distribution of the number of cells was measured using an image cytometer (Tali, Thermo Fisher Scientific, MA, USA) (FIG. 9B).

[6] = tested on: mitochondria in B16F10 cells; assay: Electron microscope observation of treated cells (Test Example 8); type: cell-based, mouse; conditions: neopetasin 3 µM, metformin 5000 µM
Procedure: Following the above results, the cells respectively treated with neopetasin (3 µM) and metformin (5000 µM) in the above were observed using an electron microscope. Furthermore, DMSO was administered to the negative control section, and the same experiment was performed.

Compound: O=CC[C@@H](O)[C@H](O)[C@H](O)CO [2-DG, 2-deoxy-D-glucose, reference compound]
- cell viability [1]: reduced in a concentration-dependent manner

- IC50 ([2]; Canis lupus familiaris, 72 h): 2810 nM
Compound: C=C(C)[C@@H]1C[C@@]2(C)C(=CC1=O)CC[C@@H](OC(=O)/C(C)=C\C)[C@@H]2C [Petasin, petasin]
- migration and invasion of colon cancer cell lines [3]: suppressed migration and invasion
- proliferation of colon cancer cell lines [3]: inhibited proliferation

- IC50 (µg/mL) [2]: 0.755 µg/mL (≈ 2.26 µM)
- IC50 [2]: 2260 nM
Compound: C=C(C)[C@@H]1C[C@@]2(C)C(=CC1=O)CC[C@@H](OC(=O)/C=C\SC)[C@@H]2C [S-petasin, reference compound]

Compound: N.N.[Cl][Pt][Cl] [cisplatin]
- IC50 for B16F10 cells (classical anticancer agent) [4]: 5 µg/mL

Compound: CN(C)C(=N)N=C(N)N [metformin, reference compound]
- MitoTracker Orange fluorescence intensity [5]: enhanced fluorescence intensity
- influence on mitochondria (electron microscope) [6]: the influence on mitochondria was mild

- IC50 (µg/mL) [2]: 0.537 µg/mL
- IC50 [2]: 1600 nM
Compound: neo-S-petasin [reference compound]
